Results reported in US20100062067A1, “COMPOSITIONS COMPRISING MACROMOLECULAR ASSEMBLIES OF LIPID AND SURFACTANT” (MALVERN COSMECEUTICS LIMITED, priority 2006, published 2010).
Read-outs that look alike come from different tables or passages of the source. Marks after values point to notes of the source that are not given here. Values belong to the compound of their own block, whether it stands above or below them.

Legend:
[1] = Turbidity of surfactant/lipid compositions, formation of macromolecular complexes (Example 1); format: physicochemical; settings: 2.5% surfactant, 1% 90H lipid, ca. 0.01% S LPC co-surfactant (as 0.05% SL 80-3) in water, room temperature
Procedure: Briefly, to the appropriate volume of warm water (ca. 60° C.), SL 80-3 was added. […] 90H was then added gradually, with heating and stirring maintained throughout and for a further 45 minutes after completion.
After mixing the solution was stirred and heated to around 60-70° C.
The required quantity of warm lipid emulsion was slowly added to the warm surfactant solution while stirring with the temperature maintained.

[2] = Visual clarity of surfactant/lipid mixtures in water (Comparative Example 1); format: physicochemical
Procedure: The appropriate quantity of lipid and surfactant was added to water, which was then warmed to approximately 50° C. and stirred until a uniform emulsion was formed. The mixture was then homogenised for 10 minutes. Percentage values specified in this experiment refer to the weight of the component in question as a proportion of the total weight of the composition. Once the mixtures were prepared they were visually examined to determine whether the surfactant component had solubilized the lipid component in the aqueous medium. The clarity of a mixture was categorized as being clear if there was no significant visible opacity to the naked eye, whereas a mixture was categorized as cloudy if there was significant visible disruption to the passage of light.

[3] = Clarity and turbidity of surfactant/active agent mixtures in water (Comparative Example 2); format: physicochemical; settings: surfactant 5% w/w + TECA 0.5% w/w in water, visual
[4] = rough average of manufacturer and literature values; cited from earlier work
[5] = Solubilisation of piroctone olamine in compositions of the invention (Example 7); format: physicochemical; settings: dried material (15 g Brij 35P, 6 g 90H, 0.3 g SL 80-3, 4.8 g active) re-solubilized into 50 g of water
Procedure: Macromolecular assemblies of the present invention which incorporated piroctone olamine were prepared in isopropanol using a method analogous to that described in Example 6 (in that case using ethanol solvent), before being dried by rotary evaporation. The dried material having the composition: • Surfactant—15 g Brij 35P • Lipid—6 g 90H • Co-surfactant (indirectly)—0.3 g SL 80-3 • Active agent—4.8 g piroctone olamine • i.e. total piroctone olamine by weight=18.4%
The dried material was then re-solubilized into 50 g of water to provide a concentrated solution (i.e. using the present invention enables aqueous formulations containing at least 9.6% piroctone olamine by weight to be prepared).

[6] = cited from earlier work
[7] = cited from earlier work; remark: listed apart in the source
[8] = Reconstitution of dried (freeze-dried or rotary evaporated) formulations in water; format: physicochemical; settings: rotary evaporated Brij 35P/90H/SL 80-3/progesterone composition
From the text: Of those samples which were dried, all were easily reconstituted into water at the same concentration as prior to drying.
Reconstitution of the freeze-dried composition containing Brij 35P (2.5%), 90H (1%), SL 80-3 (0.05%) and TECA (0.8%), indicated in the table above by #, was successful at a concentration of 32.4% by dry weight (i.e. an overall concentration of 6% active in the final aqueous solution).
The rotary evaporated composition containing Brij 35P (2.5%), 90H (1%), SL 80-3 (0.05%) and progesterone (0.1%), indicated in the table above by t, was reconstituted in water to provide a clear and colourless solution with a progesterone concentration of 0.25% (i.e. 2500 ug/ml, 2.7% progesterone by dry weight).

[9] = Surf. Brij 35P 2.5%, lipid 90H 1.0%, co-surf. S LPC ca. 0.01% (as SL 80-3 0.05%), active agent 0.10%
[10] = Appearance of aqueous gel preparations (Examples 10 and 11); format: physicochemical; settings: Example 11: TECA and VC-P solutions mixed with Blanose 7HF gel with Nipaguard DMDMH
Procedure: (§1) A stock solution of surfactant, co-surfactant, lipid and active agent was initially prepared in water at double the desired final concentration. Briefly, co-surfactant, lipid and active agent were dissolved in ethanol, while heating (approximately 30° C.) and stirring. Surfactant material was then added whilst maintaining heat and stir conditions. Ethanol was subsequently removed via rotary evaporation and the resulting dry material was then resolubilized in water with warming (ca. 50° C.) at double the desired final concentration.
Nipaguard PDU was dissolved into water while heating (approximately 30° C.) and stirring. Blanose® 7HF was then added until a uniform gel was formed.
Solution A and Solution B were then mixed in equal volumes to produce the final preparation.
as §1, with “prepared.” for “prepared in water at double the desired final concentration.”, “four times” for “double”
A stock solution of surfactant, co-surfactant, lipid and active agent was initially prepared. […]

Compound: CCCCCCCCCCCCOS(=O)(=O)[O-].[Na+] [SDS, Sodium dodecyl sulphate]
- Average Turbidity [1]: 26.2 FNU
- Clarity ([2]; surfactant 2.5% w/w + lipid 90H 1.0% w/w in water): Cloudy
- Clarity ([2]; surfactant 5.0% w/w + lipid 90H 1.0% w/w in water): Clear
- Clarity [3]: Cloudy
- Average HLB [4]: 40

- Active agent content of concentrated aqueous formulation [5]: at least 9.6 % by weight
Compound: Cc1cc(CC(C)CC(C)(C)C)n(O)c(=O)c1.NCCO (stereo not shown) [piroctone olamine]
- Aqueous solubility with surfactant ([6]; 15% SDS, pH 7, room temperature): approximately 2.8%
- Solubility ([6]; in 1,2-Propyleneglycol): 16.0%
- Solubility ([6]; in Ethanol): 10.0%
- Solubility ([6]; in Glycerol): 1.7%
- Solubility ([6]; in Isopropanol): 5.0%
- Solubility ([6]; in PEG-400): 1.9%
- Solubility ([6]; in Water): 0.05%

- Active agent by dry weight [8]: 2.7%
- Turbidity (FNU) [9]: 34.20† FNU
Compound: CC(=O)[C@H]1CC[C@H]2[C@@H]3CCC4=CC(=O)CC[C@]4(C)[C@H]3CC[C@]12C [progesterone]
- Active loading by dry weight ([7]; WO00/50007, 1.76 mg/ml using 198 mg of carrier): approximately 1.0%
- Maximum concentration in aqueous dispersion ([7]; WO00/50007, using 198 mg of carrier): 1.76 mg/mL
- Maximum concentration in aqueous dispersion ([7]; delivery system of WO00/50007 (Example 47), higher carrier concentration): 1.76 mg/mL

Compound: vitamin C dipalmitate [VC-P]
- Appearance of cosmetic gel preparation [10]: clear and colourless aqueous gel
